Experimental data: ChEMBL document CHEMBL1137843, “N-4-Substituted-benzyl-N'-tert-butylbenzyl thioureas as vanilloid receptor ligands: investigation on the role of methanesulfonamido group in antagonistic activity” (Bioorg Med Chem Lett, 2004)

How the values were obtained:
Assay type in all cases: functional
Vanilloid receptor [1] = target: T1, Vanilloid receptor (Rattus norvegicus, UniProt Q9ERZ8+Q9WUD2+O35433); assay: In vitro antagonist activity at the vanilloid receptor in rat DRG neurons.
Vanilloid receptor [2] = target: T1, Vanilloid receptor; assay: In vitro antagonist activity at vanilloid receptor in rat dorsal root ganglia (partial at 30 uM)
Vanilloid receptor [3] = target: T1, Vanilloid receptor; assay: In vitro agonist activity, increased [Ca2+] influx, at vanilloid receptor of rat dorsal root ganglia
Vanilloid receptor [4] = target: T1, Vanilloid receptor; assay: In vitro agonist activity, increased [Ca2+] influx, at vanilloid receptor of rat dorsal root ganglia (partial at 30 uM)

With `CC(C)(C)c1ccc(C/N=C(\S)NCc2ccc(NS(=O)(=O)C(F)(F)F)cc2)cc1` the IC50 (Vanilloid receptor [1]) was 12.4 µM.
Compound `CN(c1ccc(C/N=C(\S)NCc2ccc(C(C)(C)C)cc2)cc1)S(C)(=O)=O` has an IC50 (Vanilloid receptor [1]) of 2.5 µM.
With `CC(C)(C)c1ccc(C/N=C(\S)NCc2ccc(C(F)(F)F)cc2)cc1` the IC50 (Vanilloid receptor [1]) was 12.4 µM.
`CC(C)(C)c1ccc(C/N=C(\S)NCc2ccc([N+](=O)[O-])cc2)cc1` gave an IC50 (Vanilloid receptor [2]) greater than 30 µM.
With `COc1cc(C/N=C(\S)NCc2ccc(C(C)(C)C)cc2)ccc1OS(C)(=O)=O` the IC50 (Vanilloid receptor [1]) was 0.3 µM.
With `CCS(=O)(=O)Nc1ccc(C/N=C(\S)NCc2ccc(C(C)(C)C)cc2)cc1` the IC50 (Vanilloid receptor [1]) was 1.3 µM.
`CC(C)(C)c1ccc(C/N=C(\S)NCc2ccc(N)cc2)cc1` gave an EC50 (Vanilloid receptor [3]) of 7 µM.
`CCCCS(=O)(=O)Nc1ccc(C/N=C(\S)NCc2ccc(C(C)(C)C)cc2)cc1` was tested, and the IC50 (Vanilloid receptor [1]) was 4.1 µM.
`CC(C)(C)c1ccc(C/N=C(\S)NCc2ccc(NS(N)(=O)=O)cc2)cc1` was tested, and the IC50 (Vanilloid receptor [1]) was 1 µM.
`CC(C)(C)c1ccc(C/N=C(\S)NCc2ccc(OS(C)(=O)=O)cc2)cc1` was tested, and the IC50 (Vanilloid receptor [1]) was 9.3 µM.
For `CC(C)(C)c1ccc(C/N=C(\S)NCc2ccc(NC(=N)S)cc2)cc1`, the IC50 (Vanilloid receptor [2]) was greater than 30 µM and the EC50 (Vanilloid receptor [4]) was greater than 30 µM.
With `CC(C)(C)c1ccc(C/N=C(\S)NCc2ccc(NS(=O)(=O)c3cccs3)cc2)cc1` the IC50 (Vanilloid receptor [2]) was greater than 30 µM.
Compound `CNS(=O)(=O)Nc1ccc(C/N=C(\S)NCc2ccc(C(C)(C)C)cc2)cc1` has an IC50 (Vanilloid receptor [1]) of 2.5 µM.
With `CC(C)(C)c1ccc(C/N=C(\S)NCc2ccc(NS(=O)(=O)CC(F)(F)F)cc2)cc1` the IC50 (Vanilloid receptor [1]) was 11.7 µM.
In the case of `CC(C)(C)c1ccc(C/N=C(\S)NCc2ccc(O)cc2)cc1`, the EC50 (Vanilloid receptor [4]) is reported as greater than 30 µM.
Work on `CC(C)(C)c1ccc(C/N=C(\S)NCc2ccc(NS(=O)(=O)Cc3ccccc3)cc2)cc1` yielded an IC50 (Vanilloid receptor [1]) of 1.5 µM.
In the case of `CN(C)S(=O)(=O)Nc1ccc(C/N=C(\S)NCc2ccc(C(C)(C)C)cc2)cc1`, the IC50 (Vanilloid receptor [1]) is reported as 14.6 µM.
With `CC(C)S(=O)(=O)Nc1ccc(C/N=C(\S)NCc2ccc(C(C)(C)C)cc2)cc1` the IC50 (Vanilloid receptor [1]) was 3.8 µM.
For `CCCS(=O)(=O)Nc1ccc(C/N=C(\S)NCc2ccc(C(C)(C)C)cc2)cc1`, the IC50 (Vanilloid receptor [1]) was 4.5 µM.
For `Oc1cc2c(cc1O)CN(C(=S)NCCc1ccc(Cl)cc1)CCC2` [CAPSAZEPINE], the IC50 (Vanilloid receptor [1]) was 0.65 µM.
